Columns and labels:
[1] = system: oligodendroglial progenitor cells (OPCs); assay: Maturation of oligodendroglial progenitor cells (OPCs) into oligodendrocytes; type: cell-based, mouse; conditions: 100 μM, 18 h, serum-free, absence of FGF and PDGF
Experimental: FIGS. 15A-15L: Effect of sodium benzoate (NaB) on the maturation of oligodendroglial progenitor cells (OPCs) into oligodendrocytes. OPCs were isolated from P1˜P2 neonatal mouse pups, cultured in OPC media for 4 days in vitro (DIV) followed by treatment with 100 μM NaB and sodium formate (NaFO) in the absence of FGF and PDGF.
FIG. 15A) After 18 h of 100 μM NaB treatment in serum-free condition, cells were fixed and then dual immuno-stained with MBP (red) and OPC marker NG2 (green). Nuclei were stained with DAPI (blue). FIG. 15B) Similarly, OPCs were stained with PLP (red) and A2B5 (green) under similar treatment condition. Quantification of MBP+(FIG. 15C), NG2+(FIG. 15D), PLP+(FIG. 15E), and A2B5+(FIG. 15F) cells as a percentage of total cells (DAPI+). Average 5 fields per slide, total 3 slides. Results are mean+SEM. ***p<0.001. FIG. 15G) For protein expression, cells were treated with different doses of NaB for 18 h under serum free condition and then immunoblotted with PLP and MOG. FIG. 15H) Densitometric analyses of the bands relative to beta actin were done for PLP and MOG. ^ap<0.001 vs. control PLP; ^bp<0.005 vs. control MOG. FIG. 151) Cells were treated with NaB (100 μM) and NaFO (100 μM) for 4 h under serum-free condition followed by monitoring the mRNA expression of myelin-specific genes by real-time PCR (ap<0.01 vs. control PLP; ^bp<0.01 vs. control MOG; cp<0.01 vs. control MBP; dp<0.01 vs. control CNPase). OPCs were cultured on the top of randomly-oriented polycaprolactone nanofibers (Nanofiber Solutions; Cat #Z694576) for 7 days. After that, these cells were treated with 100 μM NaB (FIG. 15J) and NaFO (K) for additional 2 days followed by immunofluorescence analysis for MBP (red) (FIG. 15J, control; FIG. 15K, NaB; FIG. 15L, NaFO). […] Representative 3D constructed images of OPCs adhered to nanofibers were also shown at the right side.

[2] = system: mice with traumatic brain injury (TBI); assay: Remyelination in corpus callosum of mice with TBI (PLP/A2B5 double-labeling); type: in vivo, mouse; conditions: 50 mg/kg body weight/day oral gavage
Experimental: FIG. 4 are images of the corpus collosum in mice showing the levels of proteolipid protein (PLP) and A2B5, a marker of oligodendroglial progenitor cells (OPC), in the experimental conditions after 21 days. Oral administration of sodium benzoate (NaB), but not sodium formate (NaFO), stimulates remyelination in mice with traumatic brain injury (TBI). Mice (n=6 per group) were induced moderate TBI by controlled cortical impact (CCI). Starting from 2 hours after TBI, mice were treated with NaB and NaFO (50 mg/kg body weight/day; mixed with water) orally via gavage. After 21 d of treatment, brain sections were double-labeled for PLP and A2B5.
Proteolipid protein (PLP) is a marker of oligodendrocytes and A2B5 is a marker of oligodendroglial progenitor cells (OPC). After 21 days of treatment, brain sections were double-labeled with antibodies against PLP and A2B5.

[3] = system: OPCs cultured on polycaprolactone nanofibers; assay: Myelination of synthetic polycaprolactone nanofibers by OPCs; type: cell-based, mouse; conditions: 100 μM, 2 days after 7 days culture on nanofibers
Experimental: FIG. 15A) After 18 h of 100 μM NaB treatment in serum-free condition, cells were fixed and then dual immuno-stained with MBP (red) and OPC marker NG2 (green). Nuclei were stained with DAPI (blue). FIG. 15B) Similarly, OPCs were stained with PLP (red) and A2B5 (green) under similar treatment condition. Quantification of MBP+(FIG. 15C), NG2+(FIG. 15D), PLP+(FIG. 15E), and A2B5+(FIG. 15F) cells as a percentage of total cells (DAPI+). Average 5 fields per slide, total 3 slides. Results are mean+SEM. ***p<0.001. FIG. 15G) For protein expression, cells were treated with different doses of NaB for 18 h under serum free condition and then immunoblotted with PLP and MOG. FIG. 15H) Densitometric analyses of the bands relative to beta actin were done for PLP and MOG. ^ap<0.001 vs. control PLP; ^bp<0.005 vs. control MOG. FIG. 151) Cells were treated with NaB (100 μM) and NaFO (100 μM) for 4 h under serum-free condition followed by monitoring the mRNA expression of myelin-specific genes by real-time PCR (ap<0.01 vs. control PLP; ^bp<0.01 vs. control MOG; cp<0.01 vs. control MBP; dp<0.01 vs. control CNPase). OPCs were cultured on the top of randomly-oriented polycaprolactone nanofibers (Nanofiber Solutions; Cat #Z694576) for 7 days. […]

CCI-injured mice [4] = assay: Grid runway in CCI-injured mice; type: in vivo, mouse; conditions: 7 day post-injury, 50 mg/kg/day oral
Text: The grid runway (65 cm length×8 cm breadth×1 cm intervals) made of parallel grid bars with interbar intervals of 1 cm apart and grid were kept above the surface on a table during the testing session. The soft padding was positioned under the grid run-way in the event for protection to avoid serious injury, if the animal falls from the grid. Each mouse was allowed to walk freely on grid and the time taken and number of steps to cross the runway was noted. Each successful foot placement on grid was recorded as a step. However, an error was considered whenever the paw slips through the grid or the paw misses a bar and extends downwards through the plane of bars. The locomotor behavior of animal on grid was evaluated by an observer blinded to the treatment on 7th and 21st day after CCI injury.

CCI-induced TBI mice [5] = assay: Lesion volume in CCI-induced mice (Cavalieri stereology); type: in vivo, mouse
Experimental: FIG. 5C is a plot showing lesion size in the experimental conditions. Lesion size was quantitatively measured in control mice, untreated CCI injured mice, NaB treated CCI-mice and NaFO-treated CCI-mice at 21 days post-injury. Statistical analyses were performed with Student's t-test in the injured side of the brain [^ap<0.001 (5.623×10^−7) vs control; ^bp<0.001 (=0.001) vs CCI injury].
FIGS. 10A-10C. Decrease in lesion volume in TBI mice by GTB treatment. […] FIG. 10A. […] FIG. 10C. Lesion volume was quantified in all groups of mice. Statistical analyses were performed with two way ANOVA and expressed as mean±SD to compare the lesion volume between unlesioned and lesioned side of the brain.
The estimation of lesion volume was performed based on the Cavalieri method of unbiased stereology using the StereoInvestigator software (MicroBright Biosciences, USA). Both the ipsilateral and contralateral hemisphere of brain volumes were determined using the Cavalieri estimator with a 1 mm grid spacing 1 mm. Every fourth section was analyzed beginning from a random start point. Lesion volume was estimated by subtracting the volume of the ipsilateral hemisphere from that of the contralateral hemi-sphere. Then the volume of lesion cavity estimated in brain section of untreated mice was compared with lesion volume of brain sections of drug treated mice.

CCI-injured mice [6] = assay: Rotarod test in CCI-injured mice; type: in vivo, mouse; conditions: 50 mg/kg/day oral
Experimental: The forehindlimb motor coordination and balance in animals was observed using the rotarod test as described in earlier studies. Briefly, each mouse was placed on the confined section of the rod and trial was initiated with a smooth increase in speed from 4 rpm to 40 rpm for 5 mins. […] The latency to fall was measured in seconds and used for the analysis. Following the CCI injury, each mouse performed the task three trials during the testing sessions and the average score on these three trials was used as the individual rotarod score. Each trial on the rod was terminated when the mice fell off the rod or held on to the rod by hanging and completed improper revolutions.

CCI-induced TBI mice [7] = assay: Glial activation and iNOS in brain of CCI-induced TBI mice (immunofluorescence, Western blot); conditions: cortex and hippocampus
TBI mice = assay: Barnes maze test in TBI mice; type: in vivo, mouse; conditions: NOR, Barnes maze and T maze, 21 days, 50 mg/kg/day oral
Experimental: The Barnes maze test was performed as described in our earlier studies. Briefly, the mice were initially trained for 2 consecutive days followed by examination on day 3. After each training session, maze and escape tunnel were thoroughly cleaned with a mild detergent to avoid instinctive odor avoidance due to mouse's odor from the familiar object. On day 3, a video camera (Basler Gen I Cam—Basler acA 1300-60) connected to a Noldus computer system was placed above the maze and was illuminated with high voltage light that generated enough light and heat to motivate animals to enter into the escape tunnel. The performance was monitored by the video tracking system (Noldus System). Cognitive behavior parameters were examined by measuring latency (duration before all four paws were on the floor of the escape box) and errors (incorrect response before all four paws were on the floor of the escape box).

primary mouse astrocytes = assay: Proinflammatory cytokine production in primary mouse astrocytes (ELISA); type: cell-based; conditions: cinnamein 6 h, 50 μg/ml poly IC, serum-free, 24 h
Experimental: FIGS. 22A-22B. Cinnamein inhibits the production of proinflammatory cytokines from polyIC-stimulated primary mouse astrocytes. Astrocytes preincubated with different concentrations of cinnamein for 6 h were stimulated with 50 μg/ml poly IC under serum-free condition. After 24 h of stimulation, levels of TNFα (FIG. 22A) and IL-6 (FIG. 22B) were measured in supernatants by ELISA. Results are mean+SD of three independent experiments. *p<0.05; **p<0.01; ***p<0.001.

[8] = system: mouse RAW 264.7 macrophages; assay: NO production from stimulated RAW 264.7 macrophages (nitrite, Griess reagent); type: cell-based; conditions: cinnamein pretreatment 6 h, serum-free, 24 h; for LPS-induced production of NO (nitrite): 1 μg/ml LPS; for IFNγ-induced production of NO (nitrite): 25 U/ml IFNγ
Experimental: FIGS. 18A-18C. Cinnamein inhibits the induction of NO production from LPS- and IFNγ-stimulated mouse RAW 264.7 macrophages. FIG. 18A) Cells preincubated with different concentrations of cinnamein for 6 h were stimulated with 1 μg/ml LPS under serum-free condition. After 24 h of stimulation, the level of nitrite was measured in supernatants by Griess reagent. FIG. 18B) Cells preincubated with 400 μM cinnamein for different hours were stimulated with 1 μg/ml LPS under serum-free condition. After 24 h of stimulation, the level of nitrite was measured in supernatants. FIG. 18C) Cells preincubated with different concentrations of cinnamein for 6 h were stimulated with 25 U/ml IFNγ under serum-free condition. After 24 h of stimulation, the level of nitrite was measured in supernatants. Results are mean+SD of three independent experiments. *p<0.05; **p<0.01; ***p<0.001; NS, not significant.

primary mouse microglia = assay: Proinflammatory cytokine production in primary mouse microglia (ELISA); type: cell-based; conditions: cinnamein 6 h, serum-free, 24 h
Experimental: FIGS. 19A-19B. Cinnamein inhibits LPS- and polyIC-induced production of TNFα in primary mouse microglia. Microglia isolated from 2d old mouse pups were incubated with different concentrations of cinnamein for 6 h followed by stimulation with either 1 μg/ml LPS (FIG. 19A) or 50 μg/ml polyIC (FIG. 19B) under serum-free condition. After 24 h of stimulation, the level of TNFα was measured in supernatants by ELISA. Results are mean+SD of three independent experiments. *p<0.05; **p<0.01; ***p<0.001; NS, not significant.
FIGS. 20A-20B. Cinnamein suppresses the production of IL-1j3 from LPS- and poly IC-stimulated primary mouse microglia. Cells preincubated with different concentrations of cinnamein for 6 h were stimulated with either 1 μg/ml LPS (FIG. 20A) or 50 μg/ml polyIC (FIG. 20B) under serum-free condition. After 24 h of stimulation, the level of […] was measured in supernatants by ELISA. Results are mean+SD of three independent experiments. ***p<0.001.
FIGS. 21A-21B. Cinnamein decreases LPS- and polyIC-induced production of IL-6 in primary mouse microglia. Microglia were incubated with different concentrations of cinnamein for 6 h followed by stimulation with either 1 μg/ml LPS (FIG. 21A) or 50 μg/ml polyIC (FIG. 21B) under serum-free condition. After 24 h of stimulation, the level of IL-6 was measured in supernatants by ELISA. Results are mean+SD of three independent experiments. ***p<0.001.

[9] = day 7 post-injury, 50 mg/kg/day oral from 24 h after CCI
[10] = 1 μg/ml LPS, listed as Cinnamein
[11] = 50 μg/ml polyIC, listed as Cinnamein

O=C[O-].[Na+] [NaFO, sodium formate]
differentiation/maturation of OPCs into oligodendrocytes (MBP+, PLP+, NG2+, A2B5+ cells) [1]: did not promote
level of PLP in corpus callosum ([2]; 21 days of treatment): remained unable to restore
number of OPCs (A2B5 positive) in corpus callosum ([2]; 21 days of treatment): remained unable
remyelination ([2]; 21 d of treatment): not
myelination of synthetic fibers (MBP immunofluorescence) [3]: not
gait movement on grid runway (steps, time taken, foot misplacement) (CCI-injured mice [4]): not
total lesion volume / size of lesion cavity (CCI-induced TBI mice [5]; cresyl violet sections, 21 days post-injury, 50 mg/kg/day oral): not
structural-tissue integrity of damaged hippocampus (CCI-induced TBI mice [5]; oral treatment started 24 h after CCI): remained unable to exhibit such protection
latency to fall on rotarod (CCI-injured mice [6]; 7 day post-injury): not
latency to fall on rotarod (CCI-injured mice [6]; 21 day post-injury): not
iNOS / iNOS-positive cells (CCI-induced TBI mice [7]; day 7, 50 mg/kg/day oral): not
GFAP-positive astrocytes (CCI-induced TBI mice [7]; [9]): remained unable to inhibit glial activation
Iba1-positive microglia (CCI-induced TBI mice [7]; [9]): remained unable to inhibit glial activation
hippocampus-dependent behaviors / cognitive performance (TBI mice): remained unable to improve

O=C(/C=C/c1ccccc1)OCc1ccccc1 [cinnamein, Cinnamein]
polyIC-induced production of IL-6 (primary mouse astrocytes): inhibited
polyIC-induced production of TNFα (primary mouse astrocytes): inhibited
polyIC-induced production of IL-6 (primary mouse astrocytes; listed as Cinnamein): inhibits
polyIC-induced production of TNFα (primary mouse astrocytes; listed as Cinnamein): inhibits
LPS-induced production of NO (nitrite) [8]: significantly inhibited
LPS-induced production of NO (nitrite) ([8]; listed as Cinnamein): inhibits
IFNγ-induced production of NO (nitrite) [8]: significantly inhibited
IFNγ-induced production of NO (nitrite) ([8]; listed as Cinnamein): inhibits
LPS-induced production of IL-6 (primary mouse microglia; 1 μg/ml LPS): strongly inhibited
LPS-induced production of TNFα (primary mouse microglia; 1 μg/ml LPS): strongly inhibited
production of IL-1β (primary mouse microglia; 1 μg/ml LPS): strongly inhibited
LPS-induced production of IL-6 (primary mouse microglia; [10]): decreases
LPS-induced production of TNFα (primary mouse microglia; [10]): inhibits
production of IL-1β (primary mouse microglia; [10]): suppresses
polyIC-induced production of IL-6 (primary mouse microglia; 50 μg/ml polyIC): strongly inhibited
polyIC-induced production of TNFα (primary mouse microglia; 50 μg/ml polyIC): strongly inhibited
production of IL-1β (primary mouse microglia; 50 μg/ml polyIC): strongly inhibited
polyIC-induced production of IL-6 (primary mouse microglia; [11]): decreases
polyIC-induced production of TNFα (primary mouse microglia; [11]): inhibits
production of IL-1β (primary mouse microglia; [11]): suppresses
